PubChem BioAssay (NCI)
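Dose response: 5 concentrations. Exposure: 48 h. Format: 96-well plates. Endpoint: linear interpolation; highest concentration if not reached. Definition used: TGI = concentration required for complete inhibition of growth.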

Assays:
Assay in all cases: NCI tumour cell line growth inhibition, 48 h
786-0 renal = test system: 786-0 renal
A498 renal = test system: A498 renal
A549 NSCLC = test system: A549 NSCLC
ACHN renal = test system: ACHN renal
BT-549 breast = test system: BT-549 breast
CAKI-1 renal = test system: CAKI-1 renal
CCRF-CEM leukemia = test system: CCRF-CEM leukemia
COLO 205 colon = test system: COLO 205 colon
DU-145 prostate = test system: DU-145 prostate
EKVX NSCLC = test system: EKVX NSCLC
HCC-2998 colon = test system: HCC-2998 colon
HCT-116 colon = test system: HCT-116 colon
HCT-15 colon = test system: HCT-15 colon
HOP-62 NSCLC = test system: HOP-62 NSCLC
HOP-92 NSCLC = test system: HOP-92 NSCLC
HS 578T breast = test system: HS 578T breast
HT29 colon = test system: HT29 colon
IGROV1 ovarian = test system: IGROV1 ovarian
K-562 leukemia = test system: K-562 leukemia
KM12 colon = test system: KM12 colon
LOX IMVI melanoma = test system: LOX IMVI melanoma
M14 melanoma = test system: M14 melanoma
MALME-3M melanoma = test system: MALME-3M melanoma
MCF7 breast = test system: MCF7 breast
MDA-MB-231 breast = test system: MDA-MB-231 breast
MDA-MB-435 = test system: MDA-MB-435
MDA-N = test system: MDA-N
MOLT-4 leukemia = test system: MOLT-4 leukemia
NCI-H226 lung = test system: NCI-H226 lung
NCI-H23 lung = test system: NCI-H23 lung
NCI-H460 lung = test system: NCI-H460 lung
NCI-H522 lung = test system: NCI-H522 lung
NCI/ADR-RES ovarian = test system: NCI/ADR-RES ovarian
OVCAR-3 ovarian = test system: OVCAR-3 ovarian
OVCAR-4 ovarian = test system: OVCAR-4 ovarian
OVCAR-5 ovarian = test system: OVCAR-5 ovarian
OVCAR-8 ovarian = test system: OVCAR-8 ovarian
PC-3 prostate = test system: PC-3 prostate
RPMI-8226 leukemia = test system: RPMI-8226 leukemia
RXF 393 renal = test system: RXF 393 renal
SF-268 CNS = test system: SF-268 CNS
SF-295 CNS = test system: SF-295 CNS
SF-539 CNS = test system: SF-539 CNS
SK-MEL-2 melanoma = test system: SK-MEL-2 melanoma
SK-MEL-28 melanoma = test system: SK-MEL-28 melanoma
SK-MEL-5 melanoma = test system: SK-MEL-5 melanoma
SK-OV-3 ovarian = test system: SK-OV-3 ovarian
SN12C renal = test system: SN12C renal
SNB-19 CNS = test system: SNB-19 CNS
SNB-75 CNS = test system: SNB-75 CNS
SW-620 colon = test system: SW-620 colon
T-47D breast = test system: T-47D breast
TK-10 renal = test system: TK-10 renal
U251 CNS = test system: U251 CNS
UACC-257 melanoma = test system: UACC-257 melanoma
UACC-62 melanoma = test system: UACC-62 melanoma
UO-31 renal = test system: UO-31 renal
HL-60(TB) leukemia = test system: HL-60(TB) leukemia
SR leukemia = test system: SR leukemia

For `O=C1CNCCCN2CCN(CCCNCC(=O)Nc3ccc(cc3)S(=O)(=O)c3ccc(cc3)NC(=O)CNCCCN3CCN(CCCNCC(=O)Nc4ccc(cc4)S(=O)(=O)c4ccc(cc4)N1)CC3)CC2`, the TGI (786-0 renal) was 38.9 µM, the TGI (A498 renal) was 47.1 µM and the TGI (A549 NSCLC) was over 100 µM. For the same compound, the TGI (ACHN renal) was over 61.5 µM, the TGI (BT-549 breast) was 58.4 µM and the TGI (CAKI-1 renal) was 99.2 µM. For the same compound, the TGI (CCRF-CEM leukemia) was over 100 µM, the TGI (COLO 205 colon) was 96.9 µM and the TGI (DU-145 prostate) was over 100 µM. For the same compound, the TGI (EKVX NSCLC) was over 100 µM, the TGI (HCC-2998 colon) was 42.7 µM and the TGI (HCT-116 colon) was over 80.4 µM. The TGI (HCT-15 colon) was over 54.8 µM, the TGI (HOP-62 NSCLC) was over 63.7 µM and the TGI (HOP-92 NSCLC) was 60.6 µM. It also gave a TGI (HS 578T breast) of over 69.4 µM, a TGI (HT29 colon) of over 67.5 µM and a TGI (IGROV1 ovarian) of over 69.7 µM. It also gave a TGI (K-562 leukemia) of over 58.5 µM, a TGI (KM12 colon) of over 100 µM and a TGI (LOX IMVI melanoma) of over 100 µM. For the same compound, the TGI (M14 melanoma) was over 100 µM, the TGI (MALME-3M melanoma) was 24.2 µM and the TGI (MCF7 breast) was over 100 µM. For the same compound, the TGI (MDA-MB-231 breast) was 52.1 µM, the TGI (MDA-MB-435) was over 58.8 µM and the TGI (MDA-N) was 42.2 µM. For the same compound, the TGI (MOLT-4 leukemia) was over 51 µM, the TGI (NCI-H226 lung) was over 73.6 µM and the TGI (NCI-H23 lung) was over 76.9 µM. It also gave a TGI (NCI-H460 lung) of 33.8 µM, a TGI (NCI-H522 lung) of 53.8 µM and a TGI (NCI/ADR-RES ovarian) of over 100 µM. For the same compound, the TGI (OVCAR-3 ovarian) was over 89.4 µM, the TGI (OVCAR-4 ovarian) was 97.7 µM and the TGI (OVCAR-5 ovarian) was over 77.2 µM. For the same compound, the TGI (OVCAR-8 ovarian) was over 56.9 µM, the TGI (PC-3 prostate) was over 100 µM and the TGI (RPMI-8226 leukemia) was 64 µM. For the same compound, the TGI (RXF 393 renal) was over 70.2 µM, the TGI (SF-268 CNS) was over 55.4 µM and the TGI (SF-295 CNS) was over 62.6 µM. It also gave a TGI (SF-539 CNS) of 44.6 µM, a TGI (SK-MEL-2 melanoma) of 90.1 µM and a TGI (SK-MEL-28 melanoma) of over 56.8 µM. For the same compound, the TGI (SK-MEL-5 melanoma) was over 73 µM, the TGI (SK-OV-3 ovarian) was over 100 µM and the TGI (SN12C renal) was over 80.9 µM. For the same compound, the TGI (SNB-19 CNS) was over 100 µM, the TGI (SNB-75 CNS) was over 100 µM and the TGI (SW-620 colon) was over 100 µM. For the same compound, the TGI (T-47D breast) was 97.2 µM, the TGI (TK-10 renal) was 56.5 µM and the TGI (U251 CNS) was over 61.8 µM. It also gave a TGI (UACC-257 melanoma) of 32.7 µM, a TGI (UACC-62 melanoma) of over 67.5 µM and a TGI (UO-31 renal) of over 100 µM.

`CCOP(=O)(OCC)/C(C#N)=C/c1cnc(-c2ccccc2)[nH]1` showed a TGI (786-0 renal) of over 100 µM, a TGI (A498 renal) of over 100 µM and a TGI (A549 NSCLC) of over 100 µM. For the same compound, the TGI (ACHN renal) was over 100 µM, the TGI (BT-549 breast) was over 100 µM and the TGI (CAKI-1 renal) was over 100 µM. The TGI (CCRF-CEM leukemia) was over 100 µM, the TGI (COLO 205 colon) was over 100 µM and the TGI (DU-145 prostate) was over 100 µM. It also gave a TGI (EKVX NSCLC) of over 100 µM, a TGI (HCC-2998 colon) of over 100 µM and a TGI (HCT-116 colon) of over 100 µM. It also gave a TGI (HCT-15 colon) of over 100 µM, a TGI (HL-60(TB) leukemia) of over 100 µM and a TGI (HOP-62 NSCLC) of over 100 µM. It also gave a TGI (HOP-92 NSCLC) of over 100 µM, a TGI (HS 578T breast) of over 100 µM and a TGI (HT29 colon) of over 100 µM. For the same compound, the TGI (IGROV1 ovarian) was over 100 µM, the TGI (K-562 leukemia) was over 100 µM and the TGI (KM12 colon) was over 100 µM. It also gave a TGI (LOX IMVI melanoma) of over 100 µM, a TGI (M14 melanoma) of over 100 µM and a TGI (MALME-3M melanoma) of over 100 µM. It also gave a TGI (MCF7 breast) of over 100 µM, a TGI (MDA-MB-231 breast) of over 100 µM and a TGI (MDA-MB-435) of 80.9 µM. It also gave a TGI (MDA-N) of over 100 µM, a TGI (MOLT-4 leukemia) of over 100 µM and a TGI (NCI-H226 lung) of over 100 µM. For the same compound, the TGI (NCI-H23 lung) was over 100 µM, the TGI (NCI-H460 lung) was over 100 µM and the TGI (NCI-H522 lung) was over 100 µM. For the same compound, the TGI (NCI/ADR-RES ovarian) was over 100 µM, the TGI (OVCAR-3 ovarian) was over 100 µM and the TGI (OVCAR-4 ovarian) was over 100 µM. The TGI (OVCAR-5 ovarian) was over 100 µM, the TGI (OVCAR-8 ovarian) was over 100 µM and the TGI (PC-3 prostate) was over 100 µM. The TGI (RPMI-8226 leukemia) was over 100 µM, the TGI (RXF 393 renal) was over 100 µM and the TGI (SF-268 CNS) was over 100 µM. It also gave a TGI (SF-295 CNS) of over 100 µM, a TGI (SF-539 CNS) of over 100 µM and a TGI (SK-MEL-2 melanoma) of over 100 µM. It also gave a TGI (SK-MEL-28 melanoma) of over 100 µM, a TGI (SK-MEL-5 melanoma) of over 100 µM and a TGI (SK-OV-3 ovarian) of over 100 µM. For the same compound, the TGI (SN12C renal) was over 100 µM, the TGI (SNB-19 CNS) was over 100 µM and the TGI (SNB-75 CNS) was over 100 µM. The TGI (SR leukemia) was over 100 µM, the TGI (SW-620 colon) was over 100 µM and the TGI (U251 CNS) was over 100 µM. It also gave a TGI (UACC-257 melanoma) of over 100 µM, a TGI (UACC-62 melanoma) of over 100 µM and a TGI (UO-31 renal) of over 100 µM.

Work on `CCOC(=O)CNC(=O)C(CSCc1ccc(Br)cc1)NC(=O)CCC(N)C(=O)OCC` (stereo unspecified) yielded a TGI (786-0 renal) of over 50 µM, a TGI (A549 NSCLC) of over 50 µM and a TGI (ACHN renal) of over 50 µM. The TGI (BT-549 breast) was over 50 µM, the TGI (CAKI-1 renal) was over 50 µM and the TGI (CCRF-CEM leukemia) was over 50 µM. For the same compound, the TGI (COLO 205 colon) was over 50 µM, the TGI (DU-145 prostate) was over 50 µM and the TGI (EKVX NSCLC) was over 50 µM. The TGI (HCC-2998 colon) was over 50 µM, the TGI (HCT-116 colon) was over 50 µM and the TGI (HCT-15 colon) was over 50 µM. The TGI (HOP-62 NSCLC) was over 50 µM, the TGI (HOP-92 NSCLC) was over 50 µM and the TGI (HS 578T breast) was over 50 µM. The TGI (HT29 colon) was over 50 µM, the TGI (IGROV1 ovarian) was over 50 µM and the TGI (K-562 leukemia) was over 50 µM. It also gave a TGI (KM12 colon) of over 50 µM, a TGI (M14 melanoma) of over 50 µM and a TGI (MCF7 breast) of over 50 µM. For the same compound, the TGI (MDA-MB-231 breast) was over 50 µM, the TGI (MDA-MB-435) was over 50 µM and the TGI (MDA-N) was over 50 µM. It also gave a TGI (MOLT-4 leukemia) of over 50 µM, a TGI (NCI-H23 lung) of over 50 µM and a TGI (NCI-H460 lung) of over 50 µM. It also gave a TGI (NCI-H522 lung) of over 50 µM, a TGI (NCI/ADR-RES ovarian) of over 50 µM and a TGI (OVCAR-3 ovarian) of over 50 µM. The TGI (OVCAR-4 ovarian) was over 50 µM, the TGI (OVCAR-5 ovarian) was over 50 µM and the TGI (OVCAR-8 ovarian) was over 50 µM. The TGI (PC-3 prostate) was over 50 µM, the TGI (RPMI-8226 leukemia) was over 50 µM and the TGI (RXF 393 renal) was over 50 µM. It also gave a TGI (SF-268 CNS) of over 50 µM, a TGI (SF-295 CNS) of over 50 µM and a TGI (SF-539 CNS) of over 50 µM. It also gave a TGI (SK-MEL-2 melanoma) of over 50 µM, a TGI (SK-MEL-28 melanoma) of over 50 µM and a TGI (SK-MEL-5 melanoma) of over 50 µM. The TGI (SK-OV-3 ovarian) was over 50 µM, the TGI (SN12C renal) was over 50 µM and the TGI (SNB-19 CNS) was over 50 µM. It also gave a TGI (SNB-75 CNS) of over 50 µM, a TGI (SR leukemia) of over 50 µM and a TGI (SW-620 colon) of over 50 µM. It also gave a TGI (U251 CNS) of over 50 µM, a TGI (UACC-257 melanoma) of over 50 µM and a TGI (UACC-62 melanoma) of over 50 µM. The TGI (UO-31 renal) was over 50 µM.
